Test results reported in patent US7429396B2, “Antifungal composition, its fungicidal effect on pathogenic dermatophytes, and process for inhibiting growth of fungi” (Bio-Botanica, Inc., priority 2003, dated 2008).
Values joined by “and” are separate entries in the source; they are usually repeats but may differ in a detail not shown here. Identical values can stand only once.

Legend:
C. albicans ATCC 10231 = assay: Agar Dilution susceptibility method (Example 5); format: cell-based, Candida albicans
Description: (§1) The Agar Dilution susceptibility method was used to test the effectiveness of the antimicrobial composition of Example 1. The organisms used were S. aureus ATCC 29213, E. coli ATCC 25922, S. typhimurium ATCC 14028, K. pneumoniae ATCC 10031, P. aeruginosa ATCC 27853, C. albicans ATCC 10231, and M. smegmatis ATCC 14468. The organisms were maintained on Tryptic Soy Agar (TSA) slants. For each week, the organisms were cultured in 10 ml of Tryptic Soy Broth (TSB). After incubation at 37° C. for 17 hours (48 hours for M. smegmatis), the organism suspensions were diluted with 10 ml of sterile saline as shown in Table 4. The mold Aspergillus niger was sustained on a Sabouraud Dextrose Agar slant. The sample was then cultured in 10 ml of Tryptic Soy Broth and incubated for 7 days at 22° C. The mold was then diluted in 0.1% Tween 80 in saline. The diluted bacteria and yeast organisms were then inoculated onto the prepared sample plates with a 1 μl loop. The mold Aspergillus niger was added to prepared sample tubes with a 100 μl pipette.
(§2) Phenyloxyethanol (PE), phenylethyl alcohol (PEA) and methyl/propylparabens (MP) in a ratio of 5:4 were initially screened at their commonly recommended effective concentrations of 0.3% v/v (3 μl/ml); 1% v/v (10 μl/ml); and 0.18% w/v (1 mg methyl and 0.8 mg propylparaben/ml), respectively. The antimicrobial agent was used at an initial concentration of 0.15% v/v (1.5 μl/ml).
(§3) The sample plates for the bacteria and yeast were prepared as follows: • Prepare 10 ml tubes of TSA and allow to cool to 50° C., • Add the calculated amount of the preservative or antimicrobial agent to 100 μl dimethylsulfoxide (DMSO) to achieve the specified concentration per ml TSA when 100 μl of the DMSO solution are added to a test tube containing 10 ml of TSA, • Vortex to homogenize the mixture in TSA, • Pour TSA and the preservative or antimicrobial agent into a properly labeled Petri dish, • Allow to cool overnight at room temperature.
(§4) The prepared sample plates were divided into seven sections and the plates labeled according to the preservative or antimicrobial agent. Each section was labeled according to the microorganism to be applied to each section. The diluted organism suspensions were inoculated onto their appropriate section with a 1 μl loop, streaking radially from the center to the outer edge of the plate. A positive control plate was prepared without a preservative or antimicrobial agent of Example 1. The plates were then incubated at 37° C. for 48 hours, recording the results at 24 and 48 hours.
(§5) The results for the bacteria and yeast were scored in relation to the growth present on the positive control plate. Growth (G) was noted when there was full growth visible and the organism was not affected. […]

K. pneumoniae ATCC 10031 = assay: Agar Dilution susceptibility method (Example 5); format: cell-based, Klebsiella pneumoniae
Description: as §1, §2, §3, §4, §5
(§6) In this example and the tables, the amount of the antimicrobial agent is expressed in terms of the volume of antimicrobial sample. The concentration of the antimicrobial agent of 1 μl/ml corresponds to 1 mg (milligram)/ml of the antimicrobial agent. The MIC obtained was confirmed by three consecutive results. DMSO was used to solubilize the test samples and help to diffuse the lipophilic ingredients into the agar. DMSO was used at a concentration not exceeding 1%.

P. aeruginosa ATCC 27853 = assay: Agar Dilution susceptibility method (Example 5); format: cell-based, Pseudomonas aeruginosa
Description: as §1, §2
as §3, with “temperature. […]” for “temperature.”
(§7) The results for the bacteria and yeast were scored in relation to the growth present on the positive control plate. […]

S. aureus ATCC 29213 = assay: Agar Dilution susceptibility method (Example 5); format: cell-based, Staphylococcus aureus
Description: as §1, §2
as §3, with “temperature. […]” for “temperature.”
as §7

M. smegmatis ATCC 14468 = assay: Agar Dilution susceptibility method (Example 5); format: cell-based, Mycobacterium smegmatis
Description: as §1, §2, §3, §4, §5

E. coli ATCC 25922 = assay: Agar Dilution susceptibility method (Example 5); format: cell-based, Escherichia coli
Description: as §1, §2, §3, §4, §5

[1] = system: S. typhimurium ATCC 14028; assay: Agar Dilution susceptibility method (Example 5); format: cell-based, Salmonella typhimurium
Description: as §1, §2, §3, §4
Growth (G) was noted when there was full growth visible and the organism was not affected. […]
In this example and the tables, the amount of the antimicrobial agent is expressed in terms of the volume of antimicrobial sample. […]

A. niger ATCC 16404 = assay: Broth tube susceptibility test of the mold (Example 5); format: cell-based, Aspergillus niger
Description: as §1
The sample for the mold Aspergillus niger was prepared as follows: • Prepare 10 ml tubes of Tryptic Soy Broth (TSB), • Add the calculated amount of the sample to 100 μl dimethylsulfoxide (DMSO) to achieve the specified concentration per ml TSB. Then 100 μl of the DMSO is added to a test tube containing 10 ml of TSB, • Vortex to homogenize the mixture in TSB, • Add 100 μl of Aspergillus niger suspension to a tube of TSB not inoculated with any sample as a positive control.
The prepared sample tubes were inoculated with 100 μl of the mold Aspergillus niger suspension to produce a final mold spore concentration in each sample tube of 1×10^4 to 1×10^5 spores/ml. The prepared sample tubes of TSB were incubated at 37° C. for 5 days with the results being recorded at 3 and 5 days.
The results for Aspergillus niger were scored in relation to the growth present in the positive control tube. The growth (G) was noted when there was full growth visible as determined by the tube appearing cloudy to the same extent as the positive control tube. Partial activity (P) was recorded when the sample tube of TSB was less turbid than the control tube. No growth (I) was recorded when there was total inhibition and broth in the tube appeared clear.
as §6

For `OCCc1ccccc1` [Phenylethyl Alcohol], the “Minimum Inhibitory Concentration (MIC) (sample/ml of agar or broth)” value (“Minimum Inhibitory Concentration (MIC)” below) (C. albicans ATCC 10231) was 2.5 μl/ml and 3.0 μl/ml, the growth score (C. albicans ATCC 10231; 3.0 μl/ml) was “I” and the growth score (C. albicans ATCC 10231; 5.0 μl/ml) was “I”. For the same molecule, the growth score (C. albicans ATCC 10231; 6.0 μl/ml) was “I”, the “Minimum Inhibitory Concentration (MIC)” value (K. pneumoniae ATCC 10031) was 5.0 μl/ml and the growth score (K. pneumoniae ATCC 10031; 1.5 μl/ml) was “I”. The growth score (K. pneumoniae ATCC 10031; 3.0 μl/ml) was “I”, the growth score (K. pneumoniae ATCC 10031; 5.0 μl/ml) was “I” and the growth score (K. pneumoniae ATCC 10031; 6.0 μl/ml) was “I”. For the same molecule, the “Minimum Inhibitory Concentration (MIC)” value (P. aeruginosa ATCC 27853) was 5.0 μl/ml, the growth score (P. aeruginosa ATCC 27853; 5.0 μl/ml) was “I” and the growth score (P. aeruginosa ATCC 27853; 6.0 μl/ml) was “I”. The “Minimum Inhibitory Concentration (MIC)” value (S. aureus ATCC 29213) was 10.0 μl/ml, the “effect on S. aureus” value (S. aureus ATCC 29213; 0.3 wt %) was “no effect” and the growth score (S. aureus ATCC 29213; 6.0 μl/ml) was “I”. The “Minimum Inhibitory Concentration (MIC)” value (M. smegmatis ATCC 14468) was 2.5 μl/ml, the growth score (M. smegmatis ATCC 14468; 3.0 μl/ml) was “I” and the growth score (M. smegmatis ATCC 14468; 5.0 μl/ml) was “I”. For the same molecule, the growth score (M. smegmatis ATCC 14468; 6.0 μl/ml) was “I”, the “Minimum Inhibitory Concentration (MIC)” value (E. coli ATCC 25922) was 5.0 μl/ml and the growth score (E. coli ATCC 25922; 3.0 μl/ml) was “I”. For the same molecule, the growth score (E. coli ATCC 25922; 5.0 μl/ml) was “I”, the growth score (E. coli ATCC 25922; 6.0 μl/ml) was “I” and the “Minimum Inhibitory Concentration (MIC)” value [1] was 5.0 μl/ml. The growth score ([1]; 3.0 μl/ml) was “I”, the growth score ([1]; 5.0 μl/ml) was “I” and the growth score ([1]; 6.0 μl/ml) was “I”. For the same molecule, the “Minimum Inhibitory Concentration (MIC)” value (A. niger ATCC 16404) was 2.5 μl/ml, the growth score (A. niger ATCC 16404; 3.0 μl/ml) was “I” and the growth score (A. niger ATCC 16404; 5.0 μl/ml) was “I”. The growth score (A. niger ATCC 16404; 6.0 μl/ml) was “I”.
